The values that follow come from ChEMBL document CHEMBL4049458, “Structure-Based Optimization of Thiophene[3,2-d]pyrimidine Derivatives as Potent HIV-1 Non-nucleoside Reverse Transcriptase Inhibitors with Improved Potency against Resistance-Associated Variants” (J Med Chem, 2017).

Data set [1] can be described thus: Selectivity index, ratio of CC50 for human MT4 cells to EC50 for reverse transcriptase F227L/V106A double mutant in human MT4 cells infected HIV1 3B.
Data set [2] is described as follows: Cytotoxicity against human MT4 cells assessed as cell viability after 5 days by MTT assay. Type of data set: cell-based. A general note: Formazan colour is commonly taken as a measure of viable cells.
Data set [3] is described as follows: Selectivity index, ratio of CC50 for human MT4 cells to EC50 for wild type HIV1 3B harboring reverse transcriptase infected in human MT4 cells.
The subject of data set [4] is Human immunodeficiency virus 2. Kind of data set: Antiviral activity against HIV2 ROD harboring reverse transcriptase infected in human MT4 cells assessed as protection against virus induced cytotoxicity after 5 days by MTT assay. Type of data set: functional, cell-based. The settings on record: Human immunodeficiency virus 2, ISOLATE ROD, MT4, 120 h.
The nature of data set [5]: Selectivity index, ratio of CC50 for human MT4 cells to EC50 for reverse transcriptase E138K mutant in human MT4 cells infected HIV1 3B.
Data set [6] in a line: Selectivity index, ratio of CC50 for human MT4 cells to EC50 for reverse transcriptase Y188L mutant in human MT4 cells infected HIV1 3B.
A short description of data set [7]: Selectivity index, ratio of CC50 for human MT4 cells to EC50 for reverse transcriptase Y181C mutant in human MT4 cells infected HIV1 3B.
Data set [8] in a line: Selectivity index, ratio of CC50 for human MT4 cells to EC50 for HIV1 RES056 reverse transcriptase K103N/Y181C double mutant infected in human MT4 cells.
Data set [9] is described as follows: Selectivity index, ratio of CC50 for human MT4 cells to EC50 for reverse transcriptase L100I mutant in human MT4 cells infected HIV1 3B.
Data set [10] has as its system Human immunodeficiency virus 1. Kind of data set: Antiviral activity against wild type HIV1 3B harboring reverse transcriptase infected in human MT4 cells assessed as protection against virus induced cytotoxicity after 5 days by MTT assay. The format is functional, cell-based. To be noted: Human immunodeficiency virus 1, 3B, MT4, 120 h.
Data set [11] in a line: Selectivity index, ratio of CC50 for human MT4 cells to EC50 for reverse transcriptase K103N mutant in human MT4 cells infected HIV1 3B.

What is called CC50 is the concentration that lowers cell viability or growth by half. For orientation: EC50 means the concentration needed to bring the measured effect to its halfway point. Take `Cc1ccc(CN2CCC(Nc3nc(Oc4c(C)cc(/C=C/C#N)cc4C)c4sccc4n3)CC2)cc1`: the selectivity ratio in data set [1] (MT4 cells) was determined as 22; in data set [3] (MT4 cells) it was 326; in data set [5] (MT4 cells), 90; in [6] (MT4 cells), 21; in data set [7] (MT4 cells) it was 98; in [8] (MT4 cells), 20. For the same compound, the results for the selectivity ratio in data set [9] (MT4 cells) and in [11] (MT4 cells) were 91 and 258, respectively. For the same compound, in [2], the cytotoxic concentration (CC50) at 120 h was 2910 nM. Moreover, the concentration for a half-maximal effect (EC50) in data set [4] was above 2910 nM; in data set [10] it was 8.91 nM.
With `Cc1cc(C#N)cc(C)c1Oc1nc(NC2CCC(NCc3ccc(F)cc3)CC2)nc2ccsc12` (configuration not stated), the selectivity ratio is below 1 in data set [1] (MT4 cells); 5 in data set [3] (MT4 cells); at most 2 in [5] (MT4 cells); below 1 in data set [6] (MT4 cells); below 1 in [7] (MT4 cells); below 1 in [8] (MT4 cells). Moreover, the selectivity ratio in [9] (MT4 cells) and in data set [11] (MT4 cells) was 3 each time. Further, the CC50 at 120 h in [2] is 2760 nM. Also, the EC50 in data set [4] was above 2760 nM; in data set [10], 553 nM.
For `Cc1cc(/C=C/C#N)cc(C)c1Oc1nc(NC2CCN(Cc3ccc(F)cc3)CC2)nc2ccsc12`, the selectivity ratio in [1] (MT4 cells) was 25; in data set [3] (MT4 cells), 441; in data set [5] (MT4 cells) it was 74; in data set [6] (MT4 cells) it was 17; in data set [7] (MT4 cells) it was 95; in [8] (MT4 cells) it was 20. The selectivity ratio stood at 181 in data set [9] (MT4 cells) and 405 in [11] (MT4 cells). The CC50 at 120 h in [2] was found to be 2580 nM. Also, the results for the EC50 in [4] and in data set [10] were above 2580 nM and 5.86 nM, respectively.
On to `CCOC(=O)C1CN(Cc2ccc(S(N)(=O)=O)cc2)CCC1Nc1nc(Oc2c(C)cc(C#N)cc2C)c2sccc2n1` (configuration not stated), for which the selectivity ratio is 3 in [1] (MT4 cells); 32 in data set [3] (MT4 cells); 7 in [5] (MT4 cells); below 1 in data set [6] (MT4 cells); 23 in data set [7] (MT4 cells); at most 5 in data set [8] (MT4 cells). The selectivity ratio came to 11 in [9] (MT4 cells) and 18 in data set [11] (MT4 cells). In data set [2], the 50% cytotoxic concentration (CC50) at 120 h amounted to 4240 nM. Besides, the 50% effective concentration (EC50) in data set [4] was above 4240 nM; in [10], 134 nM.
On to `Cc1cc(/C=C/C#N)cc(C)c1Oc1nc(NC2CCN(Cc3cccc(C#N)c3)CC2)nc2ccsc12`, for which the selectivity ratio in data set [1] (MT4 cells) was determined as 107; in data set [3] (MT4 cells), 639; in data set [5] (MT4 cells), 101; in [6] (MT4 cells), 55; in data set [7] (MT4 cells), 105; in data set [8] (MT4 cells), 24. In addition, the results for the selectivity ratio in [9] (MT4 cells) and in [11] (MT4 cells) were 352 and 470, respectively. In addition, the half-maximal cytotoxic concentration (CC50) at 120 h in [2] worked out at 2820 nM. In addition, the concentration giving a half-maximal response (EC50) in data set [4] was above 2830 nM; in data set [10], 4.43 nM.
`Cc1cc(/C=C/C#N)cc(C)c1Oc1nc(NC2CCN(Cc3cccc(F)c3)CC2)nc2ccsc12`: the selectivity ratio in data set [1] (MT4 cells) turned out to be 84; in data set [3] (MT4 cells), 489; in data set [5] (MT4 cells), 150; in [6] (MT4 cells), 30; in data set [7] (MT4 cells), 138; in [8] (MT4 cells), 38. For the same compound, the figures for the selectivity ratio in [9] (MT4 cells) and in [11] (MT4 cells) were 216 and 226, respectively. The 50% cytotoxic concentration (CC50) at 120 h in data set [2] turned out to be 4760 nM. Further, the EC50 in data set [4] was above 4760 nM; in data set [10], 9.73 nM.
As for `Cc1cc(C#N)cc(C)c1Oc1nc(NC2CCC(NCc3ccc(C#N)cc3)CC2)nc2ccsc12` (configuration not stated), the selectivity ratio in data set [1] (MT4 cells) is below 1; in data set [3] (MT4 cells), 1.3; in data set [5] (MT4 cells) it was below 1; in data set [6] (MT4 cells), at most 1; in data set [7] (MT4 cells), below 1; in data set [8] (MT4 cells), below 1. Also, the selectivity ratio in data set [9] (MT4 cells) and in data set [11] (MT4 cells) was below 1 throughout. Also, the CC50 at 120 h in data set [2] worked out at 5150 nM. In addition, the EC50 in [4] is above 5150 nM; in data set [10] it was 3810 nM.
For `Cc1cc(C#N)cc(C)c1Oc1nc(NC2CCC(NCc3ccc(C(N)=O)cc3)CC2)nc2ccsc12` (configuration not stated), the CC50 at 120 h in [2] came out at 7720 nM. Further, the concentration giving a half-maximal response (EC50) in [10] amounted to 121 nM.
As for `Cc1cc(C#N)cc(C)c1Oc1nc(NC2CCN(Cc3ccc(S(N)(=O)=O)cc3)CC2C(=O)O)nc2ccsc12` (configuration not stated), the selectivity ratio in data set [1] (MT4 cells) was 11; in [3] (MT4 cells), 38; in [5] (MT4 cells), 8; in data set [6] (MT4 cells), 9; in data set [7] (MT4 cells), 8; in data set [8] (MT4 cells), below 1. In addition, the selectivity ratio in [9] (MT4 cells) was 17; in data set [11] (MT4 cells) it was 33. The half-maximal cytotoxic concentration (CC50) at 120 h in data set [2] stood at 27600 nM. Further, the 50% effective concentration (EC50) is above 27600 nM in data set [4] and 723 nM in [10].
With `Cc1cc(C#N)cc(C)c1Oc1nc(NC2CCN(Cc3ccc(C(N)=O)cc3)CC2)nc2sccc12`, the selectivity ratio in data set [1] (MT4 cells) was below 1; in [3] (MT4 cells), 32; in [5] (MT4 cells) it was 6; in data set [6] (MT4 cells) it was below 1; in [7] (MT4 cells) it was 20; in data set [8] (MT4 cells) it was 3. Moreover, the selectivity ratio is 9 in data set [9] (MT4 cells) and 11 in data set [11] (MT4 cells). For the same compound, the cytotoxic concentration (CC50) at 120 h in data set [2] was 4930 nM. For the same compound, the EC50 in [4] is above 4930 nM; in [10], 152 nM.
Take `Cc1cc(/C=C/C#N)cc(C)c1Oc1nc(NC2CCN(Cc3ccc(C(N)=O)cc3)CC2)nc2ccsc12`: the cytotoxic concentration (CC50) at 120 h in [2] is at least 3150 nM. For the same compound, in data set [10], the concentration for a half-maximal effect (EC50) was 1.26 nM.
As for `Cc1cn([C@H]2C[C@H](N=[N+]=[N-])[C@@H](CO)O2)c(=O)[nH]c1=O` [ZIDOVUDINE], the selectivity ratio in data set [1] is above 1560; in [3], 625; in data set [5], above 1030; in data set [6] it was above 1180; in data set [7] it was above 1120; in [8], above 675. The selectivity ratio in data set [9] was above 1990; in data set [11], above 1430. In addition, the CC50 at 120 h in data set [2] is above 7480 nM. Besides, the EC50 in data set [10] was determined as 5.81 nM.
Take `Cc1cc(/C=C/C#N)cc(C)c1Oc1nc(NC2CCN(Cc3cccc(C(N)=O)c3)CC2)nc2ccsc12`: the selectivity ratio in data set [1] (MT4 cells) worked out at 448; in [3] (MT4 cells), 1080; in data set [5] (MT4 cells), 551; in data set [6] (MT4 cells) it was 129; in data set [7] (MT4 cells) it was 563; in data set [8] (MT4 cells), 81. Further, the selectivity ratio in data set [9] (MT4 cells) amounted to 689; in data set [11] (MT4 cells), 1190. The half-maximal cytotoxic concentration (CC50) at 120 h in data set [2] came out at 3530 nM. The EC50 was above 3530 nM in data set [4] and 3.26 nM in data set [10].
Turning to `Cc1cc(C#N)cc(C)c1Oc1nc(NC2CCCN(Cc3ccc(C(N)=O)cc3)C2)nc2ccsc12` (configuration not stated), the CC50 at 120 h in data set [2] was determined as 19500 nM. In addition, the concentration giving a half-maximal response (EC50) in [10] was 3220 nM.
For the compound `Cc1cc(C#N)cc(C)c1Oc1nc(NC2CCCN(Cc3ccc(S(N)(=O)=O)cc3)C2)nc2ccsc12` (configuration not stated), the CC50 at 120 h in data set [2] came out at 1170 nM. In addition, the concentration giving a half-maximal response (EC50) in [10] was above 1170 nM.
On to `Cc1ccnc2c1NC(=O)c1cccnc1N2C1CC1` [NEVIRAPINE], for which the half-maximal cytotoxic concentration (CC50) at 120 h in data set [2] is above 15000 nM.
As for `O=C1Nc2ccc(Cl)cc2[C@@](C#CC2CC2)(C(F)(F)F)O1` [EFAVIRENZ], the CC50 at 120 h in [2] was above 6330 nM.
As for `Cc1cc(C#N)cc(C)c1Oc1nc(NC2CCC(NCc3cccc(C(N)=O)c3)CC2)nc2ccsc12` (configuration not stated), in data set [2], the CC50 at 120 h came to 9210 nM. Also, the EC50 in data set [10] was 135 nM.
